The source of these data is article PMC6900016, “Synthesis of Indomorphan Pseudo‐Natural Product Inhibitors of Glucose Transporters GLUT‐1 and ‐3” (Angewandte Chemie (International Ed. in English), 2019).

A value given as a limit tells only on which side of the number the result lay.

Holding throughout (test): cells
Parameters in all cases: Cell growth inhibition, sulforhodamine B total protein staining

One experiment relates to IMR90. The settings on record: Homo sapiens, IMR-90; 72 h growth; read-out: Cell growth inhibition IC50/µM. The procedure:
(§1) Cell panel profiling A panel of 94 cell lines was exposed to Glupin for 72 h to assess the influence on cell growth (Oncolead, Germany). Cell growth was determined using sulforhodamine B assay. Measurements were performed using a total protein staining protocol. Briefly, after treatement cells were fixed addition of 10% TCA (for adherent growing cells) or 50% TCA (for semi-adherent growing cells or cells growing in suspension). After an incubation at 4°C for 1 h, plates were washed twice with 400 μl of deionized water and dried. Cells were then stained with 100 μl of 0.04% wt/v sulforhodamine B. Plates were incubated at room temperature for at least 30 min and washed six times with 1% acetic acid to remove unbound stain. […] This effect was much stronger at a physiological glucose concentration (5 mM; Figure 5 b,c). […] IC50 values lower than 300 nM were obtained for more than 20 cell lines, whereas 24 cell lines were not affected by the compound, among them the peripheral blood mononuclear control cells (PBMCs). Sensitivity to Glupin was detected across various tissue types (Table S6).

The subject of another experiment is HS578T. The settings on record: Homo sapiens, Hs-578T; 72 h growth; read-out: Cell growth inhibition IC50/µM. The procedure: as §1
The test system of a further experiment is HT29. The following applies: Homo sapiens, HT-29; 72 h growth; read-out: Cell growth inhibition IC50/µM. The procedure: as §1
In the next experiment the test system is A549. The settings on record: Homo sapiens, A549; 72 h growth; read-out: Cell growth inhibition IC50/µM. The procedure: as §1
A further experiment deals with SF295. The settings on record: Homo sapiens, SF-295; 72 h growth; read-out: Cell growth inhibition IC50/µM. The method, then:
as §1

A further experiment concerns HS729. The settings on record: 72 h growth; read-out: Cell growth inhibition IC50/µM. The method, then:
as §1

In a further experiment the test system is SKMEL5. The following applies: Homo sapiens, SK-MEL-5; 72 h growth; read-out: Cell growth inhibition IC50/µM. The method, then:
as §1

The next experiment has as its system T24. The settings on record: Homo sapiens, T-24; 72 h growth; read-out: Cell growth inhibition IC50/µM. The procedure: as §1
Another experiment deals with SKNAS. The settings on record: Homo sapiens, SK-N-AS; 72 h growth; read-out: Cell growth inhibition IC50/µM. The method, then:
as §1

A further experiment relates to LOVO. The following applies: Homo sapiens, LoVo; 72 h growth; read-out: Cell growth inhibition IC50/µM. The method, then:
as §1

In the next experiment the test system is U87MG. The following applies: Homo sapiens, U-87 MG; 72 h growth; read-out: Cell growth inhibition IC50/µM. The procedure: as §1
The test system of a further experiment is U2OS. The following applies: Homo sapiens, U2OS; 72 h growth; read-out: Cell growth inhibition IC50/µM. The method, then: as §1
The test system of another experiment is CASKI. The following applies: Homo sapiens, Ca-Ski; 72 h growth; read-out: Cell growth inhibition IC50/µM. The procedure: as §1
Another experiment concerns EJ28. The following applies: Homo sapiens, EJ-28; 72 h growth; read-out: Cell growth inhibition IC50/µM. The procedure:
as §1

The subject of the next experiment is MCF7. The following applies: Homo sapiens, MCF7; 72 h growth; read-out: Cell growth inhibition IC50/µM. The method, then: as §1
In a further experiment the test system is JEG3. The settings on record: Homo sapiens, JEG-3; 72 h growth; read-out: Cell growth inhibition IC50/µM. The method, then:
as §1

The subject of a further experiment is ASPC1. The following applies: Homo sapiens, ASPC1; 72 h growth; read-out: Cell growth inhibition IC50/µM. The procedure:
as §1

A further experiment concerns IGROV1. The settings on record: Homo sapiens, IGROV-1; 72 h growth; read-out: Cell growth inhibition IC50/µM. The method, then:
as §1

A further experiment relates to MDAMB436. The settings on record: Homo sapiens, MDA-MB-436; 72 h growth; read-out: Cell growth inhibition IC50/µM. The method, then: as §1
The next experiment deals with HEK293. The settings on record: Homo sapiens, HEK293; 72 h growth; read-out: Cell growth inhibition IC50/µM. The procedure: as §1
Another experiment relates to ACHN. The following applies: Homo sapiens, ACHN; 72 h growth; read-out: Cell growth inhibition IC50/µM. The method, then:
as §1

For another experiment, the system named is SAOS2. The settings on record: Homo sapiens, SAOS-2; 72 h growth; read-out: Cell growth inhibition IC50/µM. The procedure: as §1
For another experiment, the system named is A375. The following applies: Homo sapiens, A-375; 72 h growth; read-out: Cell growth inhibition IC50/µM. The method, then: as §1

With `CCOC(=O)Cn1c2c(c3ccccc31)C[C@@H]1C[C@H]2C(OC)CN1C(=O)c1cccnc1SC` (single isomer, unassigned; (+)) [(+)-5a, Glupin], the IC50 with IMR90 was above 30 µM; with HS578T, 0.12 µM; in the experiment with HT29, 3.35 µM; in the experiment on A549, 0.32 µM; in the experiment on SF295 it was 0.427 µM; in the experiment on HS729 it was above 30 µM. Further, the IC50 in the experiment with SKMEL5 was above 30 µM; in the experiment on T24, 0.243 µM; in the experiment with SKNAS, 0.175 µM; with LOVO it was 5.41 µM; with U87MG it was above 30 µM; in the experiment with U2OS, 0.502 µM. Also, the IC50 with CASKI is 0.433 µM; in the experiment with EJ28, 1.39 µM; in the experiment with MCF7 it was above 30 µM; with JEG3, 0.933 µM; in the experiment on ASPC1, 0.695 µM; with IGROV1, 1.76 µM. The IC50 in the experiment with MDAMB436 was 11.1 µM; in the experiment with HEK293 it was 0.463 µM; in the experiment with ACHN, above 30 µM; in the experiment on SAOS2 it was above 30 µM; in the experiment on A375, 0.659 µM.
